# Patent publication US20200181284A1, “EPIGENETIC INHIBITORS FOR SENSITIZING HEMATOLOGIC OR OTHER MALIGNANCIES TO GLUCOCORTICOID THERAPY” (UNIVERSITY OF SOUTHERN CALIFORNIA, priority 2017, published 2020)
# Assays:
# RCH-ACV = assay: qPCR of effector genes, dex and CAL-101 alone and combined, 24 hours; format: cell-based, human; details: addition of CAL-101 to dex
# Method: (§1) Cell death assays: We used PrestoBlue to measure cell viability in response to knockdown and treatment. Cells were grown to a density of 250,000 cell/ml, then dispensed into black tissue culture plates and grown overnight. In the morning, cells were treated. For both CAL-101 (Selleckchem, S2226) and dex (Sigma, D4902), viability was measured after 3 days. As PrestoBlue measures NADPH/NADH metabolites, the balance of which can be affected by GC treatment, we performed frequent cell count spot checks manually by trypan blue exclusion to ensure that fluorescence measurements reflected true viability. Both CAL-101 and dex were dissolved in ethanol, and used 1:1000 in cell culture for a final ethanol concentration of 0.1%. Combination treatments were performed in triplicate in 384 well plates with 20 dilutions of dex from 10^M to 0 and 9 dilutions of CAL-101 from 10^M to 0. Viabilities and EC50 were then calculated using four parameter non-least squares fitting using Prism 6. qPCR of Causative genes: Cells were grown to a density of 1 million cells/ml, then aliquoted into 6 well plates in the afternoon, then grown overnight. Cells were then treated with the drugs and times indicated, at which point cells were spun down at 400 g for 5 minutes, the medium aspirated, and the pellet resuspended in 0.7 ml Qiazol/Trizol and frozen. RNA was then isolated using the miRNAeasy protocol. cDNA was then prepared form 1^g of RNA suing SuperScript3, and qPCR performed using BioRad iQ mix. Primers for qPCR were designed using the IDT web site, then tested for each gene. […] Expression levels for each gene were corrected for primer efficiency, normalized to RPL19, then compared to controls (Pfaffl, 2001).
# (§2) The optimal signal was determined by incubating cells with 1 ^M dex for 0, 4, 8, and 24 hours. […] Each experiment was performed at least three times, and analyzed using GraphPad (Prism 6). Significant differences between drug and control and between either drug alone and combinations was determined by two sided Student's t-test (P-Value<0.05).
# SUP-B15 [1] = assay: as above; format: cell-based, human; details: SUP-B15, addition of CAL-101 to dex
# Method: as §1, §2
# NALM-6 = assay: as above; format: cell-based, human; details: NALM-6, CAL-101 alone
# Method: as §1, §2
# [2] = tested on: relapsed B-ALL cells (ALL121); assay: PDX model of ALL: NSG mice engrafted with ALL121, spleen size and human ALL cells in spleen; format: in vivo; details: idela monotherapy 50 mg/kg daily, two weeks
# Description: As proof of concept, we tested this combination in a PDX model of ALL.
# [3] = tested on: resistant patient sample HM3101; assay: Cell death assay (PrestoBlue viability, 3 days); format: cell-based, human; details: HM3101, highest concentration (10 μM)
# Method: Cell death assays: We used PrestoBlue to measure cell viability in response to knockdown and treatment. Cells were grown to a density of 250,000 cell/ml, then dispensed into black tissue culture plates and grown overnight. In the morning, cells were treated. For both CAL-101 (Selleckchem, S2226) and dex (Sigma, D4902), viability was measured after 3 days. As PrestoBlue measures NADPH/NADH metabolites, the balance of which can be affected by GC treatment, we performed frequent cell count spot checks manually by trypan blue exclusion to ensure that fluorescence measurements reflected true viability. Both CAL-101 and dex were dissolved in ethanol, and used 1:1000 in cell culture for a final ethanol concentration of 0.1%. […] Viabilities and EC50 were then calculated using four parameter non-least squares fitting using Prism 6. qPCR of Causative genes: Cells were grown to a density of 1 million cells/ml, then aliquoted into 6 well plates in the afternoon, then grown overnight. […]
# The results as shown in FIGS. 14A-14B generally highlight the EC50 of BCP-ALL specimens for dexamethasone and CAL-101. […] Cell viability was measured by PrestoBlue staining. […] Bar plot of the EC50, calculated by four-parameter least-squares fitting (Both plotted and calculated in GraphPad Prism). […]
# [4] = tested on: five B-ALL samples (NALM-6, SUP-B15, RCH-ACV, HM3101, ALL121); assay: Combination of dex and CAL-101: isoboles and combination index (Calcusyn); format: cell-based, human; details: lowest value over the samples; super additive <1, Calcusyn
# Method: Cell death assays: We used PrestoBlue to measure cell viability in response to knockdown and treatment. Cells were grown to a density of 250,000 cell/ml, then dispensed into black tissue culture plates and grown overnight. In the morning, cells were treated. For both CAL-101 (Selleckchem, S2226) and dex (Sigma, D4902), viability was measured after 3 days. As PrestoBlue measures NADPH/NADH metabolites, the balance of which can be affected by GC treatment, we performed frequent cell count spot checks manually by trypan blue exclusion to ensure that fluorescence measurements reflected true viability. Both CAL-101 and dex were dissolved in ethanol, and used 1:1000 in cell culture for a final ethanol concentration of 0.1%. Combination treatments were performed in triplicate in 384 well plates with 20 dilutions of dex from 10^M to 0 and 9 dilutions of CAL-101 from 10^M to 0. Viabilities and EC50 were then calculated using four parameter non-least squares fitting using Prism 6. qPCR of Causative genes: Cells were grown to a density of 1 million cells/ml, then aliquoted into 6 well plates in the afternoon, then grown overnight. Cells were then treated with the drugs and times indicated, at which point cells were spun down at 400 g for 5 minutes, the medium aspirated, and the pellet resuspended in 0.7 ml Qiazol/Trizol and frozen. […]
# SUP-B15 [5] = assay: Cell death assay (PrestoBlue viability, 3 days); format: cell-based, human; details: SUP-B15, highest concentration (10 μM), 3 days
# Method: as §1
# The optimal signal was determined by incubating cells with 1 ^M dex for 0, 4, 8, and 24 hours. […] Cells were incubated with dex alone, CAL-101 alone, and in combination for 24 hours, then harvested and qPCR performed as described above. Each experiment was performed at least three times, and analyzed using GraphPad (Prism 6). Significant differences between drug and control and between either drug alone and combinations was determined by two sided Student's t-test (P-Value<0.05).
# Three cell lines (NALM6, SUP-B15, and RCH-ACV), one resistant patient sample (HM3101), and one relapsed Phlike xenograft (ALL121) were incubated with increasing concentrations of dex or CAL-101 for 3 days. Cell viability was measured by PrestoBlue staining. Curves, values, and errors are based on at least 3 replicates. Bar plot of the EC50, calculated by four-parameter least-squares fitting (Both plotted and calculated in GraphPad Prism).
compound,measurement,setting,value
CC[C@H](Nc1ncnc2[nH]cnc12)c1nc2cccc(F)c2c(=O)n1-c1ccccc1 [CAL-101],PIK3CD expression,RCH-ACV,no significant effect
same,PIK3CD expression,SUP-B15 [1],no significant effect
same,TXNIP regulation,NALM-6,no effect
same,effect on spleens (spleen size),[2],no effect
same,death caused by CAL-101,[3],< 50%
same,combination index of dex and CAL-101,[4],≥ 0.13
same,death caused by CAL-101,SUP-B15 [5],< 50%
